These results are taken from patent US4198504A, “[3-(Pyridinium)-7-(naphthyiridinyl carbonylamino)acetamido]cephalosporanic acid derivatives” (Bristol-Myers Company, priority 1978, dated 1980).

SMILES strings stand for the structures.

The test system of one data set is S. aureus. The data set is described as follows: In vitro MIC, serial two-fold agar dilution, primary evaluation Gp (S. aureus, 6 strains). The format is cell-based. As to conditions: CBPC = 100%; geometric mean of MICs; Mueller-Hinton agar. How it is done: (§1) Minimun inhibitory concentrations (MIC) were determined by the serial two-fold agar dilution method using Steers' apparatus on Mueller-Hinton agar plate against 31 test organisms for the primary screening and also against 64 strains of Pseudomonas aeruginosa for the secondary evaluation. The results are shown in Table 1 in terms of relative activity with respect to the standard compound CBPC (carbenicillin) which was set at 100%. In each group the calculation was based on the geometric mean of the observed MICs.
*GP = S. aureus (6 strains);

Data set [1] relates to E. coli (9), Klebsiella sp. (2), Pr. mirabilis (1), Sal. enteritidis (1). The data set is described as follows: In vitro MIC, serial two-fold agar dilution, primary evaluation Gn-I (E. coli, Klebsiella sp., Pr. mirabilis, Sal. enteritidis). Format: cell-based. As to conditions: CBPC = 100%; geometric mean of MICs; Mueller-Hinton agar. How it is done:
as §1
GnI = E. coli (9), Klebsiella sp. (2), Pr. mirabilis (1), Sal.

In data set [2] the test system is Ent. cloacae (3), Pr. vulgaris (1), Pr. morganii (1), S. marcescen (1). The data set is described as follows: In vitro MIC, serial two-fold agar dilution, primary evaluation Gn-II (Ent. cloacae, Pr. vulgaris, Pr. morganii, S. marcescens). The format is cell-based. As to conditions: CBPC = 100%; geometric mean of MICs; Mueller-Hinton agar. How it is done: as §1
GnII = Ent. cloacae (3), Pr. vulgaris (1), Pr. morganii (1), S. marcescen

In the next data set the test system is Ps. aeruginosa. As to the kind of experiment: In vitro MIC, serial two-fold agar dilution, primary evaluation Ps (6 strains). The format is cell-based. As to conditions: CBPC = 100%; geometric mean of MICs; Mueller-Hinton agar. How it is done:
as §1
Ps. = Ps. aeruginosa (6).
(In general: In agar dilution, organisms are placed on agar that contains the substance at set levels.)

The next data set relates to Pseudomonas aeruginosa. The data set is described as follows: In vitro MIC, serial two-fold agar dilution, secondary evaluation against Pseudomonas aeruginosa strains. The format is cell-based. To be noted: CBPC = 100%; geometric mean of MICs; 61-64 strains. How it is done:
as §1

Data set [3] relates to Pseudomonas aeruginosa A9843. As to the kind of experiment: In vivo efficacy, experimental infection in mice, intramuscular treatment, Pseudomonas aeruginosa A9843. The arrangement: species or system Pseudomonas aeruginosa (infected mice). To be noted: A9843, im, 120 h, I.M., 100×LD50 challenge i.p., 5 days, read-out: PD50 Pseudomonas aeruginosa A9843. The procedure: (§2) The in vivo efficacy was evaluated by intramuscular treatment against three kinds of experimental infection in mice.
(§3) The in vivo tests were carried out using the following three pathogenic organisms:
Pseudomonas aeruginosa A9843
(§4) Mice were challenged intraperitoneally with approximately a 100×LD50 dose of the pathogens in a 5% mucin suspension. The mice were treated with test compound by I.M. route immediately after the bacterial challenge.

The nature of data set [4]: Antibiotic blood levels in mice following intramuscular administration (paper disc-agar diffusion, Escherichia coli NIHJ as assay organism). As to conditions: mouse, im, I.M., 20 mg./kg.; for half-life: read-out: Blood level, Half-life; for Cmax: read-out: Blood level, Peak Concentration. Format: in vivo. The procedure:
Antibiotic blood levels were determined in mice following intramuscular administration of the test compounds at 20 mg./kg. The blood samples were collected from the orbital sinuses into heparinized capillary tubes at 15, 30, 60 and 120 minutes after administration. The antibiotic concentration was determined by the paper disc-agar diffusion method using Escherichia coli NIHJ as the assay organism.

The next data set relates to Escherichia coli Juhl. The data set is described as follows: In vivo efficacy, experimental infection in mice, intramuscular treatment, Escherichia coli Juhl. Details: species or system Escherichia coli (infected mice). To be noted: im, 120 h, I.M., 100×LD50 challenge i.p., 5 days, read-out: PD50 Escherichia coli Juhl. The procedure:
as §2, §3, §4

Regarding `O=C([O-])C1=C(C[n+]2ccc(C(=O)O)c(C(=O)O)c2)CSC2C(NC(=O)[C@H](NC(=O)c3cnc4cccnc4c3O)c3ccc(O)cc3)C(=O)N12` (stereo partly drawn) [BB-S586, 7-[D-α-(4-Hydroxy-1,5-naphthyridine-3-carboxamido)-α-(4-hydroxyphenyl)acetamido]-3-(3,4-dicarboxypyridinium)methyl-3-cephem-4-carboxylate], the “In vitro relative activity, primary evaluation Gp (6)” value with S. aureus amounted to 6%. Moreover, in data set [1], the “In vitro relative activity, primary evaluation Gn-I (13)” value (“In vitro relative activity … (13)” for short) amounted to 88%. The “In vitro relative activity, primary evaluation Gn-II (6)” value in data set [2] was determined as 11%. Besides, the “In vitro relative activity, primary evaluation Ps (6)” value with Ps. aeruginosa amounted to 362%. Moreover, the “In vitro relative activity, secondary, Pseudomonas aeruginosa (61-64)” value (“In vitro relative activity, secondary” below) in the data set with Pseudomonas aeruginosa is given as 351%.
One may read the half-life as the time in which the quantity being followed falls by half. Regarding `O=C([O-])C1=C(C[n+]2cccc(S(=O)(=O)O)c2)CSC2C(NC(=O)[C@H](NC(=O)c3cnc4cccnc4c3O)c3ccc(O)c(Cl)c3)C(=O)N12` (stereo partly drawn) [BB-S601, 7-[D-α-(4-Hydroxy-1,5-naphthyridine-3-carboxamido)-α-(3-chloro-4-hydroxyphenyl)acetamido]-3-(3-sulfopyridinium)methyl-3-cephem-4-carboxylate], in the data set with S. aureus, the “In vitro relative activity, primary evaluation Gp (6)” value amounted to 79%. Also, the “In vitro relative activity … (13)” value in data set [1] worked out at 107%. In addition, the “In vitro relative activity, primary evaluation Gn-II (6)” value in data set [2] was found to be 25%. In addition, the “In vitro relative activity, primary evaluation Ps (6)” value with Ps. aeruginosa stood at 3200%. In addition, in the data set on Pseudomonas aeruginosa, the “In vitro relative activity, secondary” value is recorded as 2490%. For the same molecule, the ED50 in data set [3] was 4.4 mg/kg. In data set [4], the half-life was determined as 70 min and the Cmax came out at 10000 ng/mL.
In the case of `O=C(O)CCc1ccc[n+](CC2=C(C(=O)[O-])N3C(=O)C(NC(=O)[C@H](NC(=O)c4cnc5cccnc5c4O)c4ccc(O)cc4)C3SC2)c1` (some centres unmarked) [BB-S619], in the data set on S. aureus, the “In vitro relative activity, primary evaluation Gp (6)” value is listed as 31%. In addition, in data set [1], the “In vitro relative activity … (13)” value is on record as 88%. Moreover, the “In vitro relative activity, primary evaluation Gn-II (6)” value in data set [2] was 18%. For the same molecule, in the data set on Ps. aeruginosa, the “In vitro relative activity, primary evaluation Ps (6)” value came to 725%. Further, the “In vitro relative activity, secondary” value in the data set with Pseudomonas aeruginosa is recorded as 1600%. The ED50 in the data set with Escherichia coli Juhl stood at 3.2 mg/kg. The ED50 in data set [3] is 4.6 mg/kg. Further, in data set [4], the half-life was 55 min and the Cmax was found to be 10000 ng/mL.
With `O=C([O-])C1=C(C[n+]2cccc(C(=O)O)c2)CSC2C(NC(=O)[C@H](NC(=O)c3cnc4cccnc4c3O)c3ccsc3)C(=O)N12` (stereo partly drawn) [BB-S624, 7-[D-α-(4-Hydroxy-1,5-naphthyridine-3-carboxamido)-α-(3-thienyl)acetamido]-3-(3-carboxypyridinium)methyl-3-cephem-4-carboxylate], the “In vitro relative activity, primary evaluation Gp (6)” value with S. aureus amounted to 79%. The “In vitro relative activity … (13)” value in data set [1] was determined as 47%. Also, the “In vitro relative activity, primary evaluation Gn-II (6)” value in data set [2] is given as 10%. Moreover, the “In vitro relative activity, primary evaluation Ps (6)” value with Ps. aeruginosa stood at 328%. Besides, the “In vitro relative activity, secondary” value in the data set with Pseudomonas aeruginosa is on record as 413%. For the same molecule, the ED50 in data set [3] came out at 20 mg/kg. In data set [4], the half-life was 50 min and the Cmax was 9500 ng/mL.
In the case of `O=C([O-])C1=C(C[n+]2cccc(S(=O)(=O)O)c2)CSC2C(NC(=O)[C@H](NC(=O)c3cnc4cccnc4c3O)c3ccsc3)C(=O)N12` (stereo partly drawn) [BB-S625, 7-[D-α-(4-Hydroxy-1.5-naphthyridine-3-carboxamido)-α-(3-thienyl)acetamido]-3-(3-sulfopyridinium)methyl-3-cephem-4-carboxylate], the “In vitro relative activity, primary evaluation Gp (6)” value in the data set on S. aureus came out at 50%. The “In vitro relative activity … (13)” value in data set [1] stood at 32%. Further, the “In vitro relative activity, primary evaluation Gn-II (6)” value in data set [2] is given as 7%. The “In vitro relative activity, primary evaluation Ps (6)” value with Ps. aeruginosa is listed as 200%. The “In vitro relative activity, secondary” value in the data set on Pseudomonas aeruginosa is 400%. Moreover, the ED50 in data set [3] came out at 36 mg/kg. Besides, in data set [4], the half-life was found to be 54 min and the Cmax was 10000 ng/mL.
Consider `O=C(O)C=Cc1ccc[n+](CC2=C(C(=O)[O-])N3C(=O)C(NC(=O)[C@H](NC(=O)c4cnc5cccnc5c4O)c4ccsc4)C3SC2)c1` (stereo partly drawn) [BB-S626, 7-[D-α-(4-Hydroxy-1,5-naphthyridine-3-carboxamido)-α-(3-thienyl)acetamido]-3-[3-(2-carboxyvinyl)pyridinium]methyl-3-cephem-4-carboxylate], for which the “In vitro relative activity, primary evaluation Gp (6)” value with S. aureus was 45%. For the same molecule, in data set [1], the “In vitro relative activity … (13)” value is 41%. In data set [2], the “In vitro relative activity, primary evaluation Gn-II (6)” value came to 11%. In addition, the “In vitro relative activity, primary evaluation Ps (6)” value in the data set on Ps. aeruginosa came to 231%. Besides, in the data set with Pseudomonas aeruginosa, the “In vitro relative activity, secondary” value was determined as 460%. For the same molecule, the ED50 in data set [3] worked out at 30 mg/kg. Also, in data set [4], the half-life worked out at 42 min and the Cmax came to 8800 ng/mL.
For `O=C(O)CSc1ccc[n+](CC2=C(C(=O)[O-])N3C(=O)C(NC(=O)[C@H](NC(=O)c4cnc5cccnc5c4O)c4ccc(O)cc4)C3SC2)c1` (stereo partly drawn) [BB-S636, 7-[D-α-(4-Hydroxy-1,5-naphthyridine-3-carboxamido)-α-(4-hydroxyphenyl)acetamido]-3-(3-carboxymethylthiopyridinium)-methyl-3-cephem-4-carboxylate], the “In vitro relative activity, primary evaluation Gp (6)” value in the data set on S. aureus stood at 71%. Besides, in data set [1], the “In vitro relative activity … (13)” value was 242%. The “In vitro relative activity, primary evaluation Gn-II (6)” value in data set [2] worked out at 50%. In addition, the “In vitro relative activity, primary evaluation Ps (6)” value in the data set with Ps. aeruginosa is 7070%.
For `O=C(O)CSc1ccc[n+](CC2=C(C(=O)[O-])N3C(=O)C(NC(=O)[C@H](NC(=O)c4cnc5cccnc5c4O)c4ccc(O)c(Cl)c4)C3SC2)c1` (stereo partly drawn) [BB-S637, 7-[D-α-(4-Hydroxy-1,5-naphthyridine-3-carboxamido)-α-(3-chloro-4-hydroxyphenyl)acetamido]-3-(3-carboxymethylthiopyridinium)methyl-3-cephem-4-carboxylate] the same measures were 71%, 113%, 25% and 3530%.
For `O=C(O)CSc1ccc[n+](CC2=C(C(=O)[O-])N3C(=O)C(NC(=O)[C@H](NC(=O)c4cnc5cccnc5c4O)c4ccc(O)c(O)c4)C3SC2)c1` (stereo partly drawn) [BB-S638, 7-[D-α-(4-Hydroxy-1,5-naphthyridine-3-carboxamido)-α-(3,4-dihydroxyphenyl)acetamido]-3-(3-carboxymethylthiopyridinium)-methyl-3-cephem-4-carboxylate], in the data set with S. aureus, the “In vitro relative activity, primary evaluation Gp (6)” value was determined as 8%. Also, in data set [1], the “In vitro relative activity … (13)” value is listed as 69%. Also, the “In vitro relative activity, primary evaluation Gn-II (6)” value in data set [2] is reported as 8%. Besides, the “In vitro relative activity, primary evaluation Ps (6)” value in the data set with Ps. aeruginosa amounted to 2380%.
Consider `O=C(O)CSc1cc[n+](CC2=C(C(=O)[O-])N3C(=O)C(NC(=O)[C@H](NC(=O)c4cnc5cccnc5c4O)c4ccc(O)c(O)c4)C3SC2)cc1` (stereo partly drawn) [BB-S639, 7-[D-α-(4-Hydroxy-1,5-naphthyridine-3-carboxamido)-α-(3,4-dihydroxyphenyl)acetamido]-3-(4-carboxymethylthiopyridinium)-methyl-3-cephem-4-carboxylate], for which, in the data set on S. aureus, the “In vitro relative activity, primary evaluation Gp (6)” value is 20%. Further, the “In vitro relative activity … (13)” value in data set [1] was 242%. Moreover, the “In vitro relative activity, primary evaluation Gn-II (6)” value in data set [2] is recorded as 35%. For the same molecule, in the data set with Ps. aeruginosa, the “In vitro relative activity, primary evaluation Ps (6)” value was determined as 4310%.
